Patent US20110021541A1, “INHIBITORS OF HUMAN PHOSPHATIDYL-INOSITOL 3-KINASE DELTA” (priority 2007, published 2011)

Assays:
PI3Kδ = biological target: T1, PI3Kδ (Homo sapiens, UniProt O00329); experiment: PI3Kδ biochemical assay (HTS and selectivity assay protocol, [32P]ATP / PIP2 liposomes); conditions: Table 1, in vitro activity data for selected compounds; read-out: In Vitro I-50
T1 construct: FLAG; His tag (vector pFastbac HTb); made in house; host or cells: Sf21 insect cells (baculovirus, BAC-TO-BAC HT)
Procedure: The 3× substrate for the HTS contained 0.6 mM Na2ATP, 0.10 mCi/mL γ-[^32P]ATP (NEN, Pittsburgh, Pa.), 6 μM PIP2/PS liposomes (Avanti Polar Lipids, Inc., […].), in 20 mM HEPES, pH 7.4.
Subsequent selectivity assays were done similarly using the same 3× substrate stocks except they contained 0.05 mCi/mL γ[^32P]ATP and 3 mM PIP2. Subsequent selectivity assays also used the same 3× enzyme stocks, except they now contained 3 nM of any given PI3K isoform.
For all selectivity assays, the test compounds were weighed out and dissolved into 10-50 mM stocks in 100% DMSO (depending on their respective solubilities) and stored at −20° C. Compounds were thawed (to room temperature or 37° C.), diluted to 300 μM in water from which a 3-fold dilution series into water was done. From these dilutions, 20 μL was added into the assay wells alongside water blanks used for the enzyme (positive) control and the no enzyme (background) control.

basophils = experiment: Basophil histamine release assay; format: cell-based; conditions: highest concentration (10,000 nM)
Procedure: Assessment of the effect of a compound of the invention on basophil function is tested using a conventional histamine release assay, generally in accordance with the method described in Miura et al., J Immunol, 162:4198-206 (1999). Briefly, enriched basophils are preincubated with test compounds at several concentrations from 0.1 nM to 1,000 nM for 10 min at 37° C. Then, polyclonal goat antihuman IgE (0.1 μg/mL) or fMLP is added, and allowed to incubate for an additional 30 min Histamine released into the supernatant is measured using an automated fluorometric technique.

T1 sequence (O00329 whole entry): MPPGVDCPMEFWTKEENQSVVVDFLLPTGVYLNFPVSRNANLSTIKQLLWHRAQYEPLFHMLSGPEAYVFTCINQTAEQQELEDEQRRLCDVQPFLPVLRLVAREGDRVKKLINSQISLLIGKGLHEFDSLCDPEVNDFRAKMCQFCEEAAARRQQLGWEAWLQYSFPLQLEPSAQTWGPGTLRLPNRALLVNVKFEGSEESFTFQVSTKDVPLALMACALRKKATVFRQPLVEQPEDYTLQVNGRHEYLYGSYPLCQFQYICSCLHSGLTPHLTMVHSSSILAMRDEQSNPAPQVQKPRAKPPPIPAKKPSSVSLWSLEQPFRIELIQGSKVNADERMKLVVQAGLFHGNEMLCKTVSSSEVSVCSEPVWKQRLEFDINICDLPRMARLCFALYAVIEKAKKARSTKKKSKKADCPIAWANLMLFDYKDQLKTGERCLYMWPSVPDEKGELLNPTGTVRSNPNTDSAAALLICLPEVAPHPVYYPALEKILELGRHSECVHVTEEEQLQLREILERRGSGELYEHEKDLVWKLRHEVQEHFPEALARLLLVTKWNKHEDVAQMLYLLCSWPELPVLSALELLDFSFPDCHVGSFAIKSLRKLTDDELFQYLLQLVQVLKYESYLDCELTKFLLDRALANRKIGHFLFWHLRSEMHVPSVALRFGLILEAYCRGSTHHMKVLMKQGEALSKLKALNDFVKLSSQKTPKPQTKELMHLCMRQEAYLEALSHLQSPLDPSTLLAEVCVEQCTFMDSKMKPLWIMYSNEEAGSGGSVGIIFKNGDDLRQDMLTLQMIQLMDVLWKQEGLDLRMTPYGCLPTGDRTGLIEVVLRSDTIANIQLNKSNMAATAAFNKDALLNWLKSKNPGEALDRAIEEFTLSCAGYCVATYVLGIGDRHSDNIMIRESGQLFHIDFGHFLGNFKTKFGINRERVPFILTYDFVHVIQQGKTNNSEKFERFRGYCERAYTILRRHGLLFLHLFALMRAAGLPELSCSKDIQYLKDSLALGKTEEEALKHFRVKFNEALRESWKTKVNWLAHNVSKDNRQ
T1 sequence (P27986 whole entry partner): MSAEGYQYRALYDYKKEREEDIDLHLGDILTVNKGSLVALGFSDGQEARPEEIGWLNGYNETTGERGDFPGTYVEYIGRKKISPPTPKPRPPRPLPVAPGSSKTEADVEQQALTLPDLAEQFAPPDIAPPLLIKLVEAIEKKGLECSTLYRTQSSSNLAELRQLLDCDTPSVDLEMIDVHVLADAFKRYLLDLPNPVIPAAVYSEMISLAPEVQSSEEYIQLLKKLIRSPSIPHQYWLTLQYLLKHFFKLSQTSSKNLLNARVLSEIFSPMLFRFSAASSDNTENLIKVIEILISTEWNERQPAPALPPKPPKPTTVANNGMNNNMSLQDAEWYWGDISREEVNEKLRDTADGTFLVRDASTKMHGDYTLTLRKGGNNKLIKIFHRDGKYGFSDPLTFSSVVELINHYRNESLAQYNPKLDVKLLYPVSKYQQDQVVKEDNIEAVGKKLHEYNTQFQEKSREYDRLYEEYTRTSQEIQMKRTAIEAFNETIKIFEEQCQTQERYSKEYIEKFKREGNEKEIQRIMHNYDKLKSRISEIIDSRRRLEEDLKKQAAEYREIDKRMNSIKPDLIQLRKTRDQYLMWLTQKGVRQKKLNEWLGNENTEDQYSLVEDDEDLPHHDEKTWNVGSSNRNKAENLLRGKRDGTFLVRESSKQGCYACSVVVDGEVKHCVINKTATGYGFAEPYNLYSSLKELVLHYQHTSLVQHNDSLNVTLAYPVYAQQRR

| SMILES | IC50 (PI3Kδ) [µM] | inhibition at 10 µM (basophils) [%] |
| --- | --- | --- |
| CC(c1nc2c(c(Br)nn2C)c(=O)n1-c1ccccc1)n1cnc2c(N)ncnc21 (stereo not drawn) [Compound 1, 6-[1-(6-Amino-purin-9-yl)-ethyl]-3-bromo-1-methyl-5-phenyl-1,5-dihydro-pyrazolo[3,4-d]pyrimidin-4-one] | 0.665 |  |
| CC(Sc1ncnc2[nH]cnc12)c1nc2c(c(Br)nn2C)c(=O)n1-c1ccccc1 (stereo not drawn) [Compound 2, 3-Bromo-1-methyl-5-phenyl-6-[1-(9H-purin-6-ylsulfanyl)-ethyl]-1,5-dihydro-pyrazolo[3,4-d]pyrimidin-4-one] | 6 |  |
| Cc1noc2nc(CSc3ncnc4[nH]cnc34)n(-c3ccccc3)c(=O)c12 [Compound 4, 3-Methyl-5-phenyl-6-(9H-purin-6-ylsulfanylmethyl)-5H-isoxazolo[5,4-d]pyrimidin-4-one] | 1.2 |  |
| Cc1noc2nc(Cn3cnc4c(N)ncnc43)n(-c3ccccc3)c(=O)c12 [Compound 5, 6-(6-Amino-purin-9-ylmethyl)-3-methyl-5-phenyl-5H-is oxazolo[5,4-d]pyrimidin-4-one] | 6.4 |  |
| CC(c1nc2cccnc2c(=O)n1-c1ccccc1)n1cnc2c(N)ncnc21 (stereo not drawn) [Compound 11] | 0.665 |  |
| O=c1cc(N2CCOCC2)oc2c(-c3ccccc3)cccc12 [LY294002] |  | ~100 |
